In ChEMBL document CHEMBL3045954, “Synthesis and antidepressant activity of di substituted-5-aryl-1,2,4-triazoles” (Med Chem Res, 2012) one finds Time and Activity data, which are given here for 22 molecules.

Activity calls are given as the source filed them. No cut-off for these calls is given here.

The subject of data set [1] is Mus musculus. The experiment in a line: Antidepressant activity in overnight fasted Mus musculus (mouse) assessed as decrease in immobility time at 100 mg/kg, ip administered 60 min prior to testing measured for 5 min by tail suspension test (reference value: 169.8 +/- 13 secs). The format is functional. The settings on record: route intraperitoneal.
In data set [2] the test system is Mus musculus. As to the kind of experiment: Antidepressant activity in overnight fasted Mus musculus (mouse) assessed as decrease in immobility time at 30 mg/kg, ip administered 60 min prior to testing measured for 5 min by tail suspension test (reference value: 169.8 +/- 13 secs). The settings on record: route intraperitoneal. The format is functional.
Data set [3] concerns Mus musculus. As to the kind of experiment: Antidepressant activity in overnight fasted Mus musculus (mouse) assessed as decrease in immobility time at 10 mg/kg, ip administered 60 min prior to testing measured for 5 min by tail suspension test (reference value: 169.8 +/- 13 secs). The format is functional. The settings on record: route intraperitoneal.
The species entered for data set [4] is Mus musculus. The experiment in a line: Behavioral effect in Mus musculus (mouse) assessed as effect on alertness after 3 hr. The class given is functional, organism-based.
The subject of data set [5] is Mus musculus. The experiment in a line: Acute toxicity in Mus musculus Swiss albino (mouse) up to 2000 mg/kg, ip measured for 1 month. The class given is organism-based. Also on record: dose 2000 mg/kg, route intraperitoneal. The settings on record: in vivo, 730.5 h.

As to `c1ccc(-c2nc(SCCN(C3CCCCC3)C3CCCCC3)n[nH]2)cc1`, the Time stood at 101.7 s with Mus musculus [1], 109.7 s with Mus musculus [2] and 117 s in the data set with Mus musculus [3]. In the data set filed under Mus musculus [4], the result was inactive. For the same molecule, in the data set on Mus musculus [5], the Activity result is given as “Non-toxic”.
In the case of `CCN(CC)CCSc1n[nH]c(-c2ccccc2O)n1`, the figures for the Time with Mus musculus [1], in the data set with Mus musculus [2] and in the data set on Mus musculus [3] were 137.3 s, 163.5 s and 173.8 s, respectively. In the data set filed under Mus musculus [4], the outcome was inactive. In the data set with Mus musculus [5], the Activity result is reported as “Non-toxic”.
`Oc1ccccc1-c1nc(SCCN(C2CCCCC2)C2CCCCC2)n[nH]1`: the Time in the data set with Mus musculus [1] turned out to be 150 s; in the data set on Mus musculus [2], 149.3 s; in the data set on Mus musculus [3], 162.5 s. Besides, in the data set filed under Mus musculus [4], the outcome was inactive. In addition, the Activity result in the data set on Mus musculus [5] is “Non-toxic”.
In the case of `Cc1ccc(-c2nc(SCCN(C3CCCCC3)C3CCCCC3)n[nH]2)cc1`, the Time in the data set on Mus musculus [1] is on record as 150 s; in the data set with Mus musculus [2], 151.3 s; with Mus musculus [3], 165 s. Also, the outcome in the data set filed under Mus musculus [4] was inactive. In the data set on Mus musculus [5], the Activity result is “Non-toxic”.
Regarding `CCN(CC)CCSc1n[nH]c(-c2ccc(Cl)cc2Cl)n1`, the Time stood at 103.2 s in the data set with Mus musculus [1], 110 s in the data set with Mus musculus [2] and 121.8 s in the data set on Mus musculus [3]. The outcome in the data set filed under Mus musculus [4] was inactive. Also, the Activity result in the data set with Mus musculus [5] is reported as “Non-toxic”.
On to `CN(C)CCSc1n[nH]c(-c2ccccc2)n1`, for which the Time in the data set on Mus musculus [1] is given as 102 s; in the data set on Mus musculus [2] it was 110.3 s; with Mus musculus [3] it was 117.2 s. Further, the outcome in the data set filed under Mus musculus [4] was inactive. In the data set with Mus musculus [5], the Activity entry is on record as “Non-toxic”.
As to `CCN(CC)CCSc1n[nH]c(-c2ccc(C)cc2)n1`, the values for the Time with Mus musculus [1], with Mus musculus [2] and with Mus musculus [3] were 151.2 s, 168.2 s and 178.3 s, respectively. Besides, the result in the data set listed under Mus musculus [4] was inactive. In the data set on Mus musculus [5], the Activity result is given as “Non-toxic”.
`CN(C)CCSc1n[nH]c(-c2ccc(O)cc2)n1`: the Time with Mus musculus [1] was found to be 149 s; in the data set on Mus musculus [2] it was 150.3 s; in the data set with Mus musculus [3], 161.2 s. Besides, the outcome in the data set filed under Mus musculus [4] was inactive. Moreover, the Activity result with Mus musculus [5] is recorded as “Non-toxic”.
The like results for `Oc1ccc(-c2nc(SCCN(C3CCCCC3)C3CCCCC3)n[nH]2)cc1` were, in that order, 112.7 s, 126.2 s, 157.5 s, “inactive” and “Non-toxic”.
Take `CCN(CC)CCSc1n[nH]c(-c2ccc(OC)cc2)n1`: the figures for the Time in the data set with Mus musculus [1], in the data set with Mus musculus [2] and in the data set with Mus musculus [3] were 103.8 s, 118.5 s and 139 s, respectively. In addition, the outcome in the data set listed under Mus musculus [4] was inactive. In addition, in the data set on Mus musculus [5], the Activity entry is listed as “Non-toxic”.
Turning to `COc1ccc(-c2nc(SCCN(C3CCCCC3)C3CCCCC3)n[nH]2)cc1`, the Time in the data set on Mus musculus [1] was determined as 94.8 s; in the data set with Mus musculus [2] it was 96.3 s; with Mus musculus [3], 101.3 s. In addition, the result in the data set listed under Mus musculus [4] was inactive. The Activity entry in the data set with Mus musculus [5] is “Non-toxic”.
Consider `CN(C)CCSc1n[nH]c(-c2ccc(Cl)cc2Cl)n1`, for which the Time was determined as 96.2 s in the data set on Mus musculus [1], 101.8 s in the data set with Mus musculus [2] and 109 s in the data set on Mus musculus [3]. For the same molecule, the result in the data set listed under Mus musculus [4] was inactive. For the same molecule, the Activity entry with Mus musculus [5] was “Non-toxic”.
As for `CN(C)CCSc1n[nH]c(-c2ccccc2O)n1`, the figures for the Time in the data set with Mus musculus [1], with Mus musculus [2] and in the data set with Mus musculus [3] were 150 s, 150.8 s and 164.8 s, respectively. Besides, the outcome in the data set filed under Mus musculus [4] was inactive. Further, the Activity entry with Mus musculus [5] was “Non-toxic”.
With `CCN(CC)CCSc1n[nH]c(-c2ccc(O)cc2)n1`, the Time in the data set on Mus musculus [1] turned out to be 151.8 s; in the data set on Mus musculus [2] it was 167.3 s; in the data set with Mus musculus [3], 171.8 s. Moreover, in the data set filed under Mus musculus [4], the result was inactive. Also, in the data set on Mus musculus [5], the Activity entry is given as “Non-toxic”.
As for `Clc1ccc(-c2nc(SCCN(C3CCCCC3)C3CCCCC3)n[nH]2)c(Cl)c1`, the Time in the data set with Mus musculus [1] amounted to 90.5 s; with Mus musculus [2], 94.5 s; with Mus musculus [3], 96.5 s. For the same molecule, the result in the data set listed under Mus musculus [4] was inactive. For the same molecule, the Activity result with Mus musculus [5] was “Non-toxic”.
The like results for `Clc1ccc(-c2nc(SCCN(C3CCCCC3)C3CCCCC3)n[nH]2)cc1` were, in that order, 89.2 s, 94.8 s, 96.8 s, “inactive” and “Non-toxic”.
In the case of `COc1ccc(-c2nc(SCCN(C)C)n[nH]2)cc1`, the Time in the data set on Mus musculus [1] is recorded as 103.8 s; with Mus musculus [2] it was 111 s; with Mus musculus [3] it was 116.3 s. Further, in the data set filed under Mus musculus [4], the result was inactive. Also, the Activity result in the data set on Mus musculus [5] is reported as “Non-toxic”.
`CN(C)CCCN1c2ccccc2CCc2ccccc21` [IMIPRAMINE]: in the data set with Mus musculus [3], the Time is 95.8 s.
On to `Cc1ccc(-c2nc(SCCN(C)C)n[nH]2)cc1`, for which the Time in the data set on Mus musculus [1] was found to be 152.8 s; in the data set on Mus musculus [2], 168.2 s; in the data set on Mus musculus [3], 172.8 s. The outcome in the data set listed under Mus musculus [4] was inactive. For the same molecule, in the data set with Mus musculus [5], the Activity result was “Non-toxic”.
Taken in the same sequence, the figures for `CCN(CC)CCSc1n[nH]c(-c2ccc(Cl)cc2)n1` were 103.8 s, 115 s, 129.7 s, “inactive” and “Non-toxic”.
For the molecule `CCN(CC)CCSc1n[nH]c(-c2ccccc2)n1`, the Time was 108.3 s in the data set with Mus musculus [1], 120.7 s in the data set on Mus musculus [2] and 145.8 s in the data set on Mus musculus [3]. In addition, the outcome in the data set filed under Mus musculus [4] was inactive. For the same molecule, the Activity entry in the data set with Mus musculus [5] is given as “Non-toxic”.
As for `CN(C)CCSc1n[nH]c(-c2ccc(Cl)cc2)n1`, the Time with Mus musculus [1] was found to be 96 s; in the data set with Mus musculus [2], 102.2 s; in the data set on Mus musculus [3], 109.2 s. Also, the outcome in the data set filed under Mus musculus [4] was inactive. Further, the Activity entry in the data set with Mus musculus [5] is “Non-toxic”.
